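Each compound was tested at five concentrations against cells in 96-well plates for 48 hours. GI50 is the concentration that inhibits growth by half. Definition used: TGI = concentration required for complete inhibition of growth.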
Key:
Assay in all cases: DTP human tumour cell line panel, 48 h
786-0 renal = tested on: 786-0 renal
CAKI-1 renal = tested on: CAKI-1 renal
EKVX NSCLC = tested on: EKVX NSCLC
HCT-15 colon = tested on: HCT-15 colon
HOP-62 NSCLC = tested on: HOP-62 NSCLC
HT29 colon = tested on: HT29 colon
NCI-H23 lung = tested on: NCI-H23 lung
SF-268 CNS = tested on: SF-268 CNS
SF-539 CNS = tested on: SF-539 CNS
SNB-75 CNS = tested on: SNB-75 CNS

| Compound | TGI (786-0 renal) | TGI (CAKI-1 renal) | TGI (EKVX NSCLC) | TGI (HCT-15 colon) | TGI (HOP-62 NSCLC) | TGI (HT29 colon) | TGI (NCI-H23 lung) | TGI (SF-268 CNS) | TGI (SF-539 CNS) | TGI (SNB-75 CNS) | GI50 (786-0 renal) | GI50 (CAKI-1 renal) | GI50 (EKVX NSCLC) | GI50 (HCT-15 colon) | GI50 (HOP-62 NSCLC) | GI50 (HT29 colon) | GI50 (NCI-H23 lung) | GI50 (SF-268 CNS) | GI50 (SF-539 CNS) | GI50 (SNB-75 CNS) |
| --- | --- | --- | --- | --- | --- | --- | --- | --- | --- | --- | --- | --- | --- | --- | --- | --- | --- | --- | --- | --- |
| CC1(C)CC2C(=O)c3ccccc3NC2c2ccccc21 (stereo not given) | > 100 µM | > 100 µM | > 100 µM | > 100 µM | > 100 µM | > 33.2 µM | > 64.8 µM | > 100 µM | > 22.8 µM | > 100 µM | – | – | – | – | – | – | – | – | – | – |
| C=C1C(=O)O[C@H]2[C@H]1CC/C(COC(=O)NCC(C)c1ccc(CC(C)C)cc1)=C\CC[C@@]1(C)O[C@@H]21 (stereo not given in full) | 1.1 µM | 6.68 µM | 7.95 µM | 1.27 µM | 10.5 µM | 2.52 µM | 8.69 µM | 6.59 µM | 7.71 µM | 5.48 µM | 0.582 µM | 2.32 µM | 3.85 µM | 0.595 µM | 5.29 µM | 1.03 µM | 3.69 µM | 1.82 µM | 3.71 µM | 1.21 µM |
| CC(=O)/C(=C/c1ccccc1F)C(=O)c1ccccc1 | > 100 µM | > 100 µM | > 100 µM | > 100 µM | > 100 µM | > 100 µM | > 100 µM | > 100 µM | > 100 µM | > 100 µM | – | – | – | – | – | – | – | – | – | – |
| CCOC(=O)C(NC(=O)c1nc[nH]c1[N+](=O)[O-])C(C)C (stereo not given) | > 100 µM | > 100 µM | > 100 µM | > 100 µM | > 100 µM | > 100 µM | > 100 µM | > 100 µM | > 100 µM | > 100 µM | – | – | – | – | – | – | – | – | – | – |
| CSC(=S)N/N=C/c1nccc2ccccc12 | 12.6 µM | 14.2 µM | 12.8 µM | 40 µM | 10.1 µM | > 67.5 µM | 5.03 µM | 9.65 µM | 4.83 µM | 14 µM | – | – | – | – | – | – | – | – | – | – |

Reference: PubChem BioAssay (NCI)
